Source: patent publication US20100130604A1, “USE OF ROSMARINIC ACID IN MANUFACTURE OF MEDICAMENTS FOR TREATING OR PREVENTING HEPATIC AND RENAL DISEASES” (SHANGDONG LUYE NATURAL DRUG RESEARCH AND DEVELOPMENT CO., …, priority 2006, published 2010)

Columns and labels:
CRF rats [1] = experiment: CRF induced by 5/6 nephrectomy in rats; format: in vivo, Sprague Dawley rats
CRF rats [2] = experiment: CRF induced by 5/6 nephrectomy in rats; format: in vivo, Sprague Dawley rats; remark: listed apart in the source
Protocol: 130 rats were randomly divided into 13 groups, with 10 animals in each group, namely, a normal control group, a model group, methylprednisolone p.o. Group at 12 mg/kg, RA i.v. groups at 2.5 mg/kg, 5 mg/kg, 25 mg/kg, 75 mg/kg, and 150 mg/kg of RA, and RA p.o. groups at 5 mg/kg, 10 mg/kg, 50 mg/kg, 150 mg/kg, and 300 mg/kg of RA. Apart from the normal control group, all other rats were induced to CRF by cutting off 5/6 of the kidneys. 2/3 of the left kidney was removed in the first operation, and one week later the right kidney in the second operation. Dosing started one week after the second operation via p.o. or i.p. routes. Blood was collected from eyepit at week 4 and week 8 to determine creatinine and urea nitrogen levels in sera. 5 animals in each group were sacrificed at week 4 and […] were sacrificed at the end of the study. Pathological changes in renal function were observed through HE and PAS staining of histopathological sections.

[3] = test system: proximal tubular epithelial cells (PTECs); experiment: Proliferation of PTECs cultured in glucose-rich medium (MTT); format: cell-based; details: for OD value: 72 h, 570 nm
Protocol: A 1000 mg/L stock solution of RA in DMEM medium was prepared, and filtered through 0.22 μm microfilter to remove bacteria. The stock was then aliquoted in appropriate containers and stored at −20° C. in darkness. It is good for use within 2 weeks. DMEM supplemented with 2% fetal bovine serum (FBS) was used to dilute the stock to desired concentrations before use.
Remove frozen vials storing PTECs from liquid nitrogen, thaw in water bath at 37° C. for 5 min, centrifuge at 1000 r·min^−1 for 5 min, and discard the supernatant. Blow up the cells with culture medium and transfer them into flasks for static culture. The medium was DMEM supplemented with 10 v % FBS, 1×10^5 U·L^−1 penicillin, 100 mg·L^−1 streptomycin. The cells are cultured at 37° C., 5% CO2, and saturated humidity for 2-3 days before 0.25% trypsin were used to digest the cells which were then passaged.
PTEC cells at logarithmic phase were seeded to 96-well plate at the density of 1×10^5/mL. The medium was replaced with serum-free DMEM 24 hours later and the cell culture was cultured statically for 24 hours. Discard the supernatant, dose the wells according to table 3: normal control group (NG, 5 mmol·L^−1), high glucose group (HG, 30 mmol·L^−1), NG+10 mg/L RA group, NG+50 mg/L of RA group, HG+10 mg/L of RA group, HG50 mg/L of RA group, with 6 wells in each group. Incubate for 72 hours respectively. Add 20 μL of MTT (5 mg·mL^−1) to each well 4 hours before the experiment is terminated. Remove supernatant 4 hours later, and 150 μL of DMSO was added to each well, shake for 10 min and use ELISA reader to determine OD value at 570 nm.

SMILES: O=C(/C=C/c1ccc(O)c(O)c1)O[C@H](Cc1ccc(O)c(O)c1)C(=O)O [RA, R(+)2-{[3-(3,4-dihydroxylphenyl-(oxo-2-propenyl)oxy]3,4-dihydroxylphenylpropionic acid]}]
- Serum creatinine (CRF rats [1]; 4 weeks, i.v. 2.5 mg/kg): 1.32 ± 0.18 mg/dL
- Serum urea nitrogen (CRF rats [1]; 4 weeks, i.v. 2.5 mg/kg): 21.12 ± 2.40 mg/dL
- Serum creatinine (CRF rats [1]; 4 weeks, i.v. 5 mg/kg): 1.29 ± 0.31 mg/dL
- Serum urea nitrogen (CRF rats [1]; 4 weeks, i.v. 5 mg/kg): 16.90 ± 4.09 mg/dL
- Serum creatinine (CRF rats [1]; 4 weeks, i.v. 25 mg/kg): 1.12 ± 0.24 mg/dL
- Serum urea nitrogen (CRF rats [1]; 4 weeks, i.v. 25 mg/kg): 14.63 ± 3.25 mg/dL
- Serum creatinine (CRF rats [1]; 4 weeks, i.v. 75 mg/kg): 1.02 ± 0.19 mg/dL
- Serum urea nitrogen (CRF rats [1]; 4 weeks, i.v. 75 mg/kg): 13.39 ± 2.45 mg/dL
- Serum creatinine (CRF rats [1]; 4 weeks, i.v. 150 mg/kg): 1.01 ± 0.33 mg/dL
- Serum urea nitrogen (CRF rats [1]; 4 weeks, i.v. 150 mg/kg): 12.85 ± 3.88 mg/dL
- Serum creatinine (CRF rats [1]; 4 weeks, p.o. 5 mg/kg): 1.55 ± 0.16 mg/dL
- Serum creatinine (CRF rats [1]; 4 weeks, p.o. 10 mg/kg): 1.42 ± 0.24 mg/dL
- Serum urea nitrogen (CRF rats [1]; 4 weeks, p.o. 10 mg/kg): 18.60 ± 3.11 mg/dL
- Serum creatinine (CRF rats [1]; 4 weeks, p.o. 50 mg/kg): 1.53 ± 0.15 mg/dL
- Serum creatinine (CRF rats [1]; 4 weeks, p.o. 150 mg/kg): 1.30 ± 0.22 mg/dL
- Serum urea nitrogen (CRF rats [1]; 4 weeks, p.o. 150 mg/kg): 17.01 ± 3.95 mg/dL
- Serum creatinine (CRF rats [1]; 4 weeks, p.o. 300 mg/kg): 1.29 ± 0.28 mg/dL
- Serum urea nitrogen (CRF rats [1]; 4 weeks, p.o. 300 mg/kg): 16.76 ± 4.30 mg/dL
- Serum creatinine (CRF rats [1]; 8 weeks, i.v. 2.5 mg/kg): 1.89 ± 0.22 mg/dL
- Serum urea nitrogen (CRF rats [1]; 8 weeks, i.v. 2.5 mg/kg): 22.15 ± 3.09 mg/dL
- Serum creatinine (CRF rats [1]; 8 weeks, i.v. 5 mg/kg): 1.75 ± 0.37 mg/dL
- Serum urea nitrogen (CRF rats [1]; 8 weeks, i.v. 5 mg/kg): 21.73 ± 5.26 mg/dL
- Serum creatinine (CRF rats [1]; 8 weeks, i.v. 25 mg/kg): 1.51 ± 0.32 mg/dL
- Serum urea nitrogen (CRF rats [1]; 8 weeks, i.v. 25 mg/kg): 19.25 ± 3.19 mg/dL
- Serum creatinine (CRF rats [1]; 8 weeks, i.v. 75 mg/kg): 1.39 ± 0.26 mg/dL
- Serum urea nitrogen (CRF rats [1]; 8 weeks, i.v. 75 mg/kg): 15.07 ± 3.45 mg/dL
- Serum creatinine (CRF rats [1]; 8 weeks, i.v. 150 mg/kg): 1.37 ± 0.44 mg/dL
- Serum urea nitrogen (CRF rats [1]; 8 weeks, i.v. 150 mg/kg): 14.85 ± 3.88 mg/dL
- Serum creatinine (CRF rats [1]; 8 weeks, p.o. 5 mg/kg): 2.09 ± 0.22 mg/dL
- Serum creatinine (CRF rats [1]; 8 weeks, p.o. 10 mg/kg): 2.06 ± 0.21 mg/dL
- Serum urea nitrogen (CRF rats [1]; 8 weeks, p.o. 10 mg/kg): 25.65 ± 2.57 mg/dL
- Serum urea nitrogen (CRF rats [1]; 8 weeks, p.o. 50 mg/kg): 23.91 ± 4.00 mg/dL
- Serum creatinine (CRF rats [1]; 8 weeks, p.o. 150 mg/kg): 1.76 ± 0.30 mg/dL
- Serum urea nitrogen (CRF rats [1]; 8 weeks, p.o. 150 mg/kg): 21.96 ± 3.95 mg/dL
- Serum urea nitrogen (CRF rats [1]; 8 weeks, p.o. 300 mg/kg): 20.76 ± 5.50 mg/dL
- serum creatinine and urea nitrogen levels vs model group (CRF rats [1]; i.v. 2.5, 5, 25, 75, 150 mg/kg, p.o. 5, 10, 50, 150, 300 mg/kg): can all significantly reduce serum creatinine and urea nitrogen levels
- renal pathological changes (HE, PAS) (CRF rats [1]; week 4): alleviated in RA treated animals in a dose-dependent manner
- Serum urea nitrogen (CRF rats [2]; 4 weeks, p.o. 5 mg/kg): 20.21 ± 2.22 mg/dL
- Serum urea nitrogen (CRF rats [2]; 4 weeks, p.o. 50 mg/kg): 19.95 ± 2.20 mg/dL
- Serum urea nitrogen (CRF rats [2]; 8 weeks, p.o. 5 mg/kg): 25.98 ± 2.72 mg/dL
- Serum creatinine (CRF rats [2]; 8 weeks, p.o. 50 mg/kg): 1.92 ± 0.32 mg/dL
- Serum creatinine (CRF rats [2]; 8 weeks, p.o. 300 mg/kg): 1.74 ± 0.36 mg/dL
- renal pathological changes (HE, PAS) (CRF rats [2]; week 8): alleviated by RA treatment in a dose-dependent manner
- OD value ([3]; HG (30 mmol/L glucose) + 10 mg/L RA): 1.289 ± 0.041
- OD value ([3]; HG (30 mmol/L glucose) + 50 mg/L RA): 1.317 ± 0.077
- OD value ([3]; NG (5 mmol/L glucose) + 10 mg/L RA): 1.168 ± 0.106
- OD value ([3]; NG (5 mmol/L glucose) + 50 mg/L RA): 1.052 ± 0.036
- PTECs proliferation induced by high level of glucose ([3]; certain concentrations of RA, P<0.05): can inhibit PTECs proliferation induced by high level of glucose
